Measured values published in the NIST ThermoML archive (doi:10.1021/je0201166).
± gives the expanded uncertainty stated by the source.

Conditions: Liquid; for mass density: 298.15 K, 101.33 kPa

Row | mass density | Normal boiling temperature | SMILES
1 | 1058.6 ± 5 kg/m3 | 75.42 ± 0.1 °C | C1COCO1 [1,3-dioxolane]
2 | 786.7 ± 5 kg/m3 | 64.54 ± 0.1 °C | CO [methanol]
3 | 997.2 ± 5 kg/m3 | 99.98 ± 0.1 °C | O [water]
